This is an account of results in patent US20260132132A1, “3A,4,5,6-TETRAHYDRO-1 H-PYRAZOLO[3,4-C]PYRIDIN-7(7AH)-ONE DERIVATIVES AS FACTOR XIIA INHIBITORS” (KALVISTA PHARMACEUTICALS LIMITED, priority 2022, published 2026).

The target of this experiment is T1, Human Factor XIIa (hFXIIa) (Homo sapiens, UniProt P00748).
T1 construct: purchased Enzyme Research Laboratories
T1 sequence (P00748 373-615 limits assumed): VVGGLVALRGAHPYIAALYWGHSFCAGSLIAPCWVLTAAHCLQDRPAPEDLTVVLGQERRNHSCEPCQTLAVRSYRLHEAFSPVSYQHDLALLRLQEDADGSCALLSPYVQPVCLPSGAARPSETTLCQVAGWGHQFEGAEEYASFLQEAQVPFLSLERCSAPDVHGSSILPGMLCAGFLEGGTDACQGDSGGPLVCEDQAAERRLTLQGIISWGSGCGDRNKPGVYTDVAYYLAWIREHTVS
T1 sequence (P00748 20-372 partner limits assumed): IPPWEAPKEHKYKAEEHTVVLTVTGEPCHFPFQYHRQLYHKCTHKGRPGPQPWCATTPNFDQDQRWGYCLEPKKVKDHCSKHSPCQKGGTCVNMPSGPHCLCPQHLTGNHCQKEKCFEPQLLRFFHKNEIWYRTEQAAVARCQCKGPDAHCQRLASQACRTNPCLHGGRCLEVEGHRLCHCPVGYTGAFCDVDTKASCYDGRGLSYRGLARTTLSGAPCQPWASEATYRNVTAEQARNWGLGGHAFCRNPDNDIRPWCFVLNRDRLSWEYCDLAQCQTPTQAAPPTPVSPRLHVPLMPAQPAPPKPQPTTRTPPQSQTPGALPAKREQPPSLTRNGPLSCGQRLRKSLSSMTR
Nature of the experiment: Determination of Human Factor XIIa (hFXIIa) inhibition, fluorogenic substrate IC50 assay. The experiment is classed as biochemical. The settings on record: fluorogenic substrate H-DPro-Phe-Arg-AFC at Km, 25° C., read-out: Human FXIIa IC50. The protocol:
Determination of Human Factor XIIa (hFXIIa) inhibition
The Km for the cleavage of the substrate by hFXIIa was determined by standard transformation of the Michaelis-Menten equation, with subsequent inhibition assays performed at substrate Km concentration.
For the compound `O=C(NCc1ncccc1Cl)c1nn(-c2cccc(Cl)c2)c2c1CCN(c1ccc3c(c1)CN(CCO)CC3)C2=O` [Example 1170, 1-(3-chlorophenyl)-N-((3-chloropyridin-2-yl)methyl)-6-(2-(2-hydroxyethyl)-1,2,3,4-tetrahydroisoquinolin-7-yl)-7-oxo-4,5,6,7-tetrahydro-1H-pyrazolo[3,4-c]pyridine-3-carboxamide], the 50% inhibitory concentration (IC50) was in the range of 10 to 100 nM. In the case of `Cc1cc(CNC(=O)c2nn(-c3cccc(Cl)c3)c3c2CCN(c2ccc4c(c2)CN(CCO)CC4)C3=O)ccn1` [Example 1171, 1-(3-chlorophenyl)-6-(2-(2-hydroxyethyl)-1,2,3,4-tetrahydroisoquinolin-7-yl)-N-((2-methylpyridin-4-yl)methyl)-7-oxo-4,5,6,7-tetrahydro-1H-pyrazolo[3,4-c]pyridine-3-carboxamide] it was 10 to 100 nM; in that of `COc1cnccc1CNC(=O)c1nn(-c2cccc(Cl)c2)c2c1CCN(c1ccc3c(c1)CN(CCO)CC3)C2=O` [Example 1172, 1-(3-chlorophenyl)-6-(2-(2-hydroxyethyl)-1,2,3,4-tetrahydroisoquinolin-7-yl)-N-((3-methoxypyridin-4-yl)methyl)-7-oxo-4,5,6,7-tetrahydro-1H-pyrazolo[3,4-c]pyridine-3-carboxamide], 10 to 100 nM; in that of `COc1ccc(CNC(=O)c2nn(-c3cccc(Cl)c3)c3c2CCN(c2cccc(CN4CCCCC4)c2)C3=O)cn1` [Example 1173, 1-(3-chlorophenyl)-N-((6-methoxypyridin-3-yl)methyl)-7-oxo-6-(3-(piperidin-1-ylmethyl)phenyl)-4,5,6,7-tetrahydro-1H-pyrazolo[3,4-c]pyridine-3-carboxamide], 100 to 300 nM.

As to `O=C(NCc1cnccc1Cl)c1nn(-c2cccc(Cl)c2)c2c1CCN(c1cccc(CN3CCCCC3)c1)C2=O` [Example 1174, 1-(3-chlorophenyl)-N-((4-chloropyridin-3-yl)methyl)-7-oxo-6-(3-(piperidin-1-ylmethyl)phenyl)-4,5,6,7-tetrahydro-1H-pyrazolo[3,4-c]pyridine-3-carboxamide], the IC50 lay within 100 to 300 nM.

As to `O=C(NCC1CC1)c1nn(-c2cccc(Cl)c2)c2c1CCN(c1ccc3c(c1)CN(CCF)CC3)C2=O` [Example 1175, 1-(3-chlorophenyl)-N-(cyclopropylmethyl)-6-(2-(2-fluoroethyl)-1,2,3,4-tetrahydroisoquinolin-7-yl)-7-oxo-4,5,6,7-tetrahydro-1H-pyrazolo[3,4-c]pyridine-3-carboxamide], the IC50 is 100 to 300 nM. `Cc1cn(C)nc1CNC(=O)c1nn(-c2cccc(Cl)c2)c2c1CCN(c1cccc(CN3CCCCC3)c1)C2=O` [Example 1178, 1-(3-chlorophenyl)-N-((1,4-dimethyl-1H-pyrazol-3-yl)methyl)-7-oxo-6-(3-(piperidin-1-ylmethyl)phenyl)-4,5,6,7-tetrahydro-1H-pyrazolo[3,4-c]pyridine-3-carboxamide]: the IC50 is 100 to 300 nM. Turning to `CN1CCc2ccc(N3CCc4c(C(=O)O)nn(-c5cccc(Cl)c5)c4C3=O)cc2C1=O` [Example 1182, 1-(3-chlorophenyl)-6-(2-methyl-1-oxo-1,2,3,4-tetrahydroisoquinolin-7-yl)-7-oxo-4,5,6,7-tetrahydro-1H-pyrazolo[3,4-c]pyridine-3-carboxylic acid], the IC50 fell in the range of 3000 to 10000 nM. In the case of `CN1CCc2ccc(N3CCc4c(CO)nn(-c5cccc(Cl)c5)c4C3=O)cc2C1=O` [Example 1183, 7-(1-(3-chlorophenyl)-3-(hydroxymethyl)-7-oxo-1,4,5,7-tetrahydro-6H-pyrazolo[3,4-c]pyridin-6-yl)-2-methyl-3,4-dihydroisoquinolin-1(2H)-one] it was 1000 to 3000 nM; in that of `COCc1nn(-c2cccc(Cl)c2)c2c1CCN(c1ccc3c(c1)C(=O)N(C)CC3)C2=O` [Example 1184, 7-(1-(3-chlorophenyl)-3-(methoxymethyl)-7-oxo-1,4,5,7-tetrahydro-6H-pyrazolo[3,4-c]pyridin-6-yl)-2-methyl-3,4-dihydroisoquinolin-1(2H)-one], 1000 to 3000 nM. As for `CN1CCc2cc(N3CCc4c(C(=O)NCC5CC5)nn(-c5cccc(Cl)c5)c4C3=O)ccc2C1=O` [Example 1190, 1-(3-chlorophenyl)-N-(cyclopropylmethyl)-6-(2-methyl-1-oxo-1,2,3,4-tetrahydroisoquinolin-6-yl)-7-oxo-4,5,6,7-tetrahydro-1H-pyrazolo[3,4-c]pyridine-3-carboxamide], the half-inhibitory concentration (IC50) lay in the range of 10000 to 40000 nM.

`COC1CN(CCO)Cc2cc(N3CCc4c(C(=O)NCC5CC5)nn(-c5cccc(Cl)c5)c4C3=O)ccc21` (stereo not shown) [Example 1191, 1-(3-chlorophenyl)-N-(cyclopropylmethyl)-6-(2-(2-hydroxyethyl)-4-methoxy-1,2,3,4-tetrahydroisoquinolin-7-yl)-7-oxo-4,5,6,7-tetrahydro-1H-pyrazolo[3,4-c]pyridine-3-carboxamide]: the 50% inhibitory concentration (IC50) was in the range of 300 to 1000 nM.

`CN1Cc2ccc(N3CCc4c(C(=O)NCC5CC5)nn(-c5cccc(Cl)c5)c4C3=O)cc2C1=O` [Example 1192, 1-(3-chlorophenyl)-N-(cyclopropylmethyl)-6-(2-methyl-3-oxoisoindolin-5-yl)-7-oxo-4,5,6,7-tetrahydro-1H-pyrazolo[3,4-c]pyridine-3-carboxamide]: the IC50 was in the range of 3000 to 10000 nM.

Turning to `CCOC(=O)c1nn(-c2cccc(Cl)c2)c2c1CCN(c1cccc(C(=O)N(C)C)c1)C2=O` [Example 1196, ethyl 1-(3-chlorophenyl)-6-(3-(dimethylcarbamoyl)phenyl)-7-oxo-4,5,6,7-tetrahydro-1H-pyrazolo[3,4-c]pyridine-3-carboxylate], the half-inhibitory concentration (IC50) was in the range of 3000 to 10000 nM. In the case of `C[C@@H](NC(=O)c1nn(-c2cccc(Cl)c2)c2c1CCN(c1ccc3c(c1)C(=O)N(C)CC3)C2=O)c1cccnc1` [Example 1214, (R)-1-(3-chlorophenyl)-6-(2-methyl-1-oxo-1,2,3,4-tetrahydroisoquinolin-7-yl)-7-oxo-N-(1-(pyridin-3-yl)ethyl)-4,5,6,7-tetrahydro-1H-pyrazolo[3,4-c]pyridine-3-carboxamide] it was 300 to 1000 nM; in that of `C[C@H](NC(=O)c1nn(-c2cccc(Cl)c2)c2c1CCN(c1ccc3c(c1)C(=O)N(C)CC3)C2=O)c1cccnc1` [Example 1215, (S)-1-(3-chlorophenyl)-6-(2-methyl-1-oxo-1,2,3,4-tetrahydroisoquinolin-7-yl)-7-oxo-N-(1-(pyridin-3-yl)ethyl)-4,5,6,7-tetrahydro-1H-pyrazolo[3,4-c]pyridine-3-carboxamide], 100 to 300 nM; in that of `CCN1CCc2ccc(N3CCc4c(C(=O)NCc5cc(C)n(C)n5)nn(-c5cccc(Cl)c5)c4C3=O)cc2C1=O` [Example 1219, 1-(3-chlorophenyl)-N-((1,5-dimethyl-1H-pyrazol-3-yl)methyl)-6-(2-ethyl-1-oxo-1,2,3,4-tetrahydroisoquinolin-7-yl)-7-oxo-4,5,6,7-tetrahydro-1H-pyrazolo[3,4-c]pyridine-3-carboxamide], 10 to 100 nM. As for `COc1cccnc1CNC(=O)c1nn(-c2cccc(Cl)c2)c2c1CCN(c1cc3c(cn1)CCN(CCO)C3)C2=O` [Example 1221, 1-(3-chlorophenyl)-6-(6-(2-hydroxyethyl)-5,6,7,8-tetrahydro-2,6-naphthyridin-3-yl)-N-((3-methoxypyridin-2-yl)methyl)-7-oxo-4,5,6,7-tetrahydro-1H-pyrazolo[3,4-c]pyridine-3-carboxamide], the IC50 is 10 to 100 nM. `Cc1ccncc1CNC(=O)c1nn(-c2cccc(Cl)c2)c2c1CCN(c1ccc3c(c1)C(=O)NCC3)C2=O` [Example 1240, 1-(3-chlorophenyl)-N-((4-methylpyridin-3-yl)methyl)-7-oxo-6-(1-oxo-1,2,3,4-tetrahydroisoquinolin-7-yl)-4,5,6,7-tetrahydro-1H-pyrazolo[3,4-c]pyridine-3-carboxamide]: the half-inhibitory concentration (IC50) is 300 to 1000 nM. As to `Cc1cc(CNC(=O)c2nn(-c3cccc(Cl)c3)c3c2CCN(c2ccc4c(c2)N(C)C(=O)CCC4)C3=O)nn1C` [Example 1241, 1-(3-chlorophenyl)-N-((1,5-dimethyl-1H-pyrazol-3-yl)methyl)-6-(1-methyl-2-oxo-2,3,4,5-tetrahydro-1H-benzo[b]azepin-8-yl)-7-oxo-4,5,6,7-tetrahydro-1H-pyrazolo[3,4-c]pyridine-3-carboxamide], the 50% inhibitory concentration (IC50) lay within 1000 to 3000 nM. On to `CN1C(=O)CCCc2ccc(N3CCc4c(C(=O)NCC5CC5)nn(-c5cccc(Cl)c5)c4C3=O)cc21` [Example 1242, 1-(3-chlorophenyl)-N-(cyclopropylmethyl)-6-(1-methyl-2-oxo-2,3,4,5-tetrahydro-1H-benzo[b]azepin-8-yl)-7-oxo-4,5,6,7-tetrahydro-1H-pyrazolo[3,4-c]pyridine-3-carboxamide], for which the IC50 lay in the range of 3000 to 10000 nM.

For `O=C(NCC1CC1)c1nn(-c2cccc(Cl)c2)c2c1CCN(c1cccc(CN3CCC(F)C3)c1)C2=O` (stereo not shown) [Example 1243, 1-(3-chlorophenyl)-N-(cyclopropylmethyl)-6-(3-((3-fluoropyrrolidin-1-yl)methyl)phenyl)-7-oxo-4,5,6,7-tetrahydro-1H-pyrazolo[3,4-c]pyridine-3-carboxamide], the IC50 fell in the range of 1000 to 3000 nM.
